Assay results reported in patent publication US20030088888A1, “Method of plant transformation” (priority 2001, published 2003).

Tested on: gypsophila stem explants
Test: Transient transformation (GUS expression) of stem explants from GA3-pretreated plants after cocultivation with Agrobacterium tumefaciens EHA105/pKIWI105
Format: in vivo, Gypsophila paniculata L.
Protocol: Unrooted cuttings of gypsophila (Gypsophila paniculata L.) cultivars Arbel, Pestival, Flamingo, Yokinko, New Hope and P2000 were obtained from Danziger “DAN” Flower Farm (Moshav Mishmar Hashiva, Israel). Stem cuttings with six or eight filly mature leaves (not counting the apical leaves which were not fully expanded), harvested from greenhouse-grown plants and stored for up to 2 weeks at 4° C., were used to prepare stem explants (Zuker A, Ahroni A, Shejtman H and Vainstein A (1997). Adventitious shoot regeneration from leaf explants of Gypsophila paniculata L. Plant Cell Reports, 16: 775-778; Ahroni A, Zuker A, Rozen Y, Shejtman H and Vainstein A (1997). An efficient method for adventitious shoot regeneration from stem-segment explants of gwpsophila. Plant Cell Tiss Org Cult 49: 101-106). Twenty days prior to harvesting of cuttings (unless otherwise i5 indicated), mother plants were sprayed once with approximately 4 ml. of 1 mM GA3.
Cuttings were rinsed with 70% ethanol, then sterilized for 10 min in 1.5% (w/v) sodium hypochlorite and rinsed three times for 10 min each in sterile water. The leaves and shoot apices of the cutting were discarded and the three primary nodes were immersed for 10 min in a bacterial (A. tumefaciens EHA105/pKIWI105) suspension (OD550=1). Inoculated stem explants were then blotted dry and cultured in an upright position on the cocultivation medium for a period of up to 5 days. Following cocultivation, stem explants were histochemically evaluated for transient GUS expression by counting the number of GUS-expressing stem explants, as well as the number of blue spots per explant under a stereo-microscope.
A histochemical assay of GUS activity was performed according to Stomp (1992). Tissue samples were incubated for a few hours to overnight at 37° C. in a 0.1% (w/v) X-Gluc (5-bromo-4-chloro-3-indolyl β-D-glucuronic acid sodium salt, Biosynth Inc., Staad, Switzerland) solution containing 0.1 M sodium phosphate buffer (pH 7.0), 10 mM EDTA, and 0.1% (w/v) Triton X-100. When necessary, green tissues were bleached, after staining, by immersion in 50% (v/v) EtOH for a few hours, followed by several washes with 70% EtOH. It should be noted that no background GUS activity was detectable in any of the analyzed tissues of control plants.

`C=C1C[C@]23C[C@@]1(O)CC[C@H]2[C@@]12C=C[C@H](O)[C@@](C)(C(=O)O1)[C@H]2[C@@H]3C(=O)O` [GA3] was tested, and the “increase in frequency of transient transformation events (number of blue spots per explant)” value (cv. Arbel, explants from 20 day versus 10 day GA3 treated plants) was “ca. 3 times”, the “percentage of GUS-expressing stem explants out of total number of explants inoculated” value (cv. Arbel, explants from plants 20 days after GA3 treatment (1 mM spray), 5-day cocultivation with EHA105/pKIWI105) was 90% and the “percentage of inoculated explants expressing GUS” value (cvs. Pestival and Flamingo, GA3-treated plants, cocultivation with EHA105/pKIWI105, dark then light, 5 days) was “ca. 75%”. The “transient transformation (qualitative)” value (explants from cuttings of plants treated with GA3, versus no transient transformation without GA3) was “efficient and highly reproducible transient transformation was obtained”.
